This test relates to MIA PaCa-2 cells. Briefly: MIA PaCa2 cell-based assay (1,536-well high-content imaging ALDEFLUOR assay). More on the design: species or system human. To be noted: Homo sapiens, 0.5 h, ALDEFLUOR BAAA substrate 500 nM, 30 minutes. The method, then:
Example 359. MIA PaCa2 Cell-Based Assay (In Vitro Assay)
1,536-Well High-Content Imaging ALDEFLUOR Assay
The ALDEFLUOR™ kit was purchased from […] Technologies (Vancouver, Canada; #01700). MIA PaCa-2 cells (5 μL; 1,000 cells/well) were dispensed into black, optical quality (cyclic olefin copolymer) clear bottom, medium binding TC treated 1,536-well plates (Aurora Microplates, Whitefish Mont.) using a Multidrop Combi dispenser (ThermoFisher) and incubated overnight (37° C., 5% CO2, 85% RH). Media (RPMI 1640 (Life Technologies, Carlsbad, Calif.), supplemented with 2 mM L-Glutamine (Life Technologies), 10% HyClone™ fetal bovine serum (FBS, GE Healthcare, Piscataway, N.J.) and 100 U/mL penicillin and 100 μg/mL streptomycin (Life Technologies)) was subsequently removed by centrifuging plates upside down using a plate adaptor to collect media. A solution of BAAA substrate ([…] Technologies) and Hoechst 33342 (ThermoFisher, final concentrations of 500 nM and 0.5 nM, respectively) in ALDEFLUOR™ buffer ([…] Technologies #01700) was dispensed onto cells using a Multidrop Combi followed by immediate transfer (23 nL) of compound or control solutions using a Wako Pin-tool (final percentage of DMSO in the cell plates was 0.5%). Unless otherwise noted, all compounds were assayed as 16-point dilutions spanning a final concentration range of 1.4 nM to 47.8 μM. The neutral and positive assay controls were DMSO and DEAB (4.6 μM), respectively. Cells were incubated for 30 minutes or the indicated amount of time at 37° C., 5% CO2, 85% RH to allow the conversion of BAAA into BAA. Supernatant was subsequently removed by centrifugation as described above, then ALDEFLUOR™ buffer (3 μl) was dispensed by Multidrop Combi before imaging on an IN Cell 2200 (GE Healthcare).
The above assay was modified for an online robotic screening system. After cell plating and overnight incubation, 4 μL of media were removed using a 64-tip metal aspirator head on a Wako aspirator station, leaving 1 μL remaining in the well, followed by a 4 μL dispense of BAAA and Hoechst 33342 in ALDEFLUOR™ buffer, for a final concentration of 500 nM and 0.5 nM, respectively Immediately following the dispense, 23 nL of compound or control solutions were transferred using a Wako Pin-tool. Cells were incubated for 30 minutes at 37° C., 5% CO2, 85% RH, followed by a 4 μL media removal using the Wako aspirator, and a subsequent 3 μL addition of ALDEFLUOR™ buffer. Plates were then immediately read on the IN Cell 2200 as described below.
Image Acquisition and Analysis
For images captured on the IN Cell 2200 widefield automated microscope, a 10×0.45 NA Plan Apo objective lens was used to capture the entire well of the 1,536-well plate using standard DAPI (390/18×, 432/48 m) and FITC (475/28×, 525/48 m) filter sets at 50 msec and 100 msec exposures, respectively. Images were subsequently analyzed using IN Cell Investigator v1.6.2 analysis software's canned Multi-Target Analysis algorithm (GE Healthcare). Hoechst stained nuclei were identified using top hat segmentation with a minimum area of 75 μm^2 and sensitivity of 93. BAA-retaining cells captured via FITC channel, were identified using multiscale top hat segmentation with a minimum area of 100 μm^2 and a sensitivity setting of 16. […] Data were plotted using GraphPad Prism software (GraphPad, San Diego, Calif.).

Structures can show the parent of a compound that is named as a salt.

`N#CC1CCN(c2c(C(=O)N3CCN(C(=O)C4CC4)CC3)cnc3ccc(F)cc23)CC1` [Cpd. 302, 1-(3-(4-(cyclopropanecarbonyl)piperazine-1-carbonyl)-6-fluoroquinolin-4-yl)piperidine-4-carbonitrile] had an IC50 greater than 10000 nM.
In the case of `CS(=O)(=O)N1CCN(c2c(C(=O)N3CCN(C(=O)C4CC4)CC3)cnc3ccc(F)cc23)CC1` [Cpd. 303, (4-(cyclopropanecarbonyl)piperazin-1-yl)(6-fluoro-4-(4-(methylsulfonyl)piperazin-1-yl)quinolin-3-yl)methanone] it was 1000 to 10000 nM.
Compound `CC(=O)N1CCN(c2c(C(=O)N3CCN(C(=O)C4CC4)CC3)cnc3ccc(F)cc23)CC1` [Cpd. 304, 1-(4-(3-(4-(cyclopropanecarbonyl)piperazine-1-carbonyl)-6-fluoroquinolin-4-yl)piperazin-1-yl)ethanone] returned a half-maximal inhibitory concentration (IC50) greater than 10000 nM.
On to `CS(=O)(=O)N1CCN(C(=O)c2cnc3ccc(F)cc3c2N2CCC(C#N)CC2)CC1` [Cpd. 305, 1-(6-fluoro-3-(4-(methylsulfonyl)piperazine-1-carbonyl)quinolin-4-yl)piperidine-4-carbonitrile], for which the 50% inhibitory concentration (IC50) was greater than 10000 nM.
The compound `CC(C)(C)c1ccc(-c2c(C(=O)N3CCN(S(C)(=O)=O)CC3)cnc3ccc(F)cc23)cc1` [Cpd. 306, (4-(4-(tert-butyl)phenyl)-6-fluoroquinolin-3-yl)(4-(methylsulfonyl)piperazin-1-yl)methanone] displayed a concentration for half-maximal inhibition (IC50) of less than 500 nM.
Under `CS(=O)(=O)N1CCN(C(=O)c2cnc3ccc(F)cc3c2-c2ccc(C3(C#N)CCC3)cc2)CC1` [Cpd. 308, 1-(4-(6-fluoro-3-(4-(methylsulfonyl)piperazine-1-carbonyl)quinolin-4-yl)phenyl)cyclobutanecarbonitrile] stands less than 500 nM; under `CS(=O)(=O)N1CCN(C(=O)c2cnc3ccc(F)cc3c2-c2ccc(C3(C#N)CCCC3)cc2)CC1` [Cpd. 309, 1-(4-(6-fluoro-3-(4-(methylsulfonyl)piperazine-1-carbonyl)quinolin-4-yl)phenyl)cyclopentanecarbonitrile], less than 500 nM; under `CC(C)(C#N)c1ccc(-c2c(C(=O)N3CCN(S(C)(=O)=O)CC3)cnc3ccc(F)cc23)c(F)c1` [Cpd. 311, 2-(3-fluoro-4-(6-fluoro-3-(4-(methylsulfonyl)piperazine-1-carbonyl)quinolin-4-yl)phenyl)-2-methylpropanenitrile], less than 500 nM.
As for `N#CC1(c2ccccc2)CCN(c2c(C(=O)N3CCN(C(=O)C4CC4)CC3)cnc3ccc(Cl)cc23)CC1` [Cpd. 313, 1-(6-chloro-3-(4-(cyclopropanecarbonyl)piperazine-1-carbonyl)quinolin-4-yl)-4-phenylpiperidine-4-carbonitrile], the half-inhibitory concentration (IC50) was less than 500 nM.
Consider `CS(=O)(=O)N1CCN(C(=O)c2cnc3ccc(F)cc3c2-c2ccc(C3(C#N)CC3)cc2F)CC1` [Cpd. 315, 1-(3-fluoro-4-(6-fluoro-3-(4-(methylsulfonyl)piperazine-1-carbonyl)quinolin-4-yl)phenyl)cyclopropanecarbonitrile], for which the 50% inhibitory concentration (IC50) is less than 500 nM.
`CS(=O)(=O)N1CCN(C(=O)c2cnc3ccc(Cl)cc3c2N2CCC(C#N)(c3ccccc3)CC2)CC1` [Cpd. 316, 1-(6-chloro-3-(4-(methylsulfonyl)piperazine-1-carbonyl)quinolin-4-yl)-4-phenylpiperidine-4-carbonitrile]: the IC50 is less than 500 nM.
In the case of `COc1ccc2ncc(C(=O)N3CCN(S(C)(=O)=O)CC3)c(N3CCC(C#N)(c4ccccc4)CC3)c2c1` [Cpd. 317, 1-(6-methoxy-3-(4-(methylsulfonyl)piperazine-1-carbonyl)quinolin-4-yl)-4-phenylpiperidine-4-carbonitrile] it was less than 500 nM.
`COc1ccc2c(N3CCC(C#N)(c4ccccc4)CC3)c(C(=O)N3CCN(S(C)(=O)=O)CC3)cnc2c1` [Cpd. 318, 1-(7-methoxy-3-(4-(methylsulfonyl)piperazine-1-carbonyl)quinolin-4-yl)-4-phenylpiperidine-4-carbonitrile] gave a concentration for half-maximal inhibition (IC50) of less than 500 nM.
The compound `CS(=O)(=O)N1CCN(C(=O)c2cnc3cc(F)c(F)cc3c2N2CCC(C#N)(c3ccccc3)CC2)CC1` [Cpd. 319, 1-(6,7-difluoro-3-(4-(methylsulfonyl)piperazine-1-carbonyl)quinolin-4-yl)-4-phenylpiperidine-4-carbonitrile] registered a half-maximal inhibitory concentration (IC50) of less than 500 nM.
Under `CS(=O)(=O)N1CCN(C(=O)c2cnc3c(F)cc(F)cc3c2N2CCC(C#N)(c3ccccc3)CC2)CC1` [Cpd. 320, 1-(6,8-difluoro-3-(4-(methylsulfonyl)piperazine-1-carbonyl)quinolin-4-yl)-4-phenylpiperidine-4-carbonitrile] stands less than 500 nM.
Under `COc1ccc2ncc(C(=O)N3CCN(S(C)(=O)=O)CC3)c(-c3ccc(C4(C#N)CC4)cc3)c2c1` [Cpd. 321, 1-(4-(6-methoxy-3-(4-(methylsulfonyl)piperazine-1-carbonyl)quinolin-4-yl)phenyl)cyclopropane-1-carbonitrile] stands less than 500 nM.
`COc1ccc2c(-c3ccc(C4(C#N)CC4)cc3)c(C(=O)N3CCN(S(C)(=O)=O)CC3)cnc2c1` [Cpd. 322, 1-(4-(7-methoxy-3-(4-(methylsulfonyl)piperazine-1-carbonyl)quinolin-4-yl)phenyl)cyclopropane-1-carbonitrile]: the IC50 was less than 500 nM.
The compound `CS(=O)(=O)N1CCN(C(=O)c2cnc3cc(F)c(F)cc3c2-c2ccc(C3(C#N)CC3)cc2)CC1` [Cpd. 323, 1-(4-(6,7-difluoro-3-(4-(methylsulfonyl)piperazine-1-carbonyl)quinolin-4-yl)phenyl)cyclopropane-1-carbonitrile] showed a concentration for half-maximal inhibition (IC50) of less than 500 nM.
In the case of `CS(=O)(=O)N1CCN(C(=O)c2cnc3c(F)cc(F)cc3c2-c2ccc(C3(C#N)CC3)cc2)CC1` [Cpd. 324, 1-(4-(6,8-difluoro-3-(4-(methylsulfonyl)piperazine-1-carbonyl)quinolin-4-yl)phenyl)cyclopropane-1-carbonitrile] it was less than 500 nM; in that of `N#CC1(c2ccccc2)CCN(c2c(C(=O)Nc3cnn(CC(N)=O)c3)cnc3ccc(F)cc23)CC1` [Cpd. 352, N-(1-(2-amino-2-oxoethyl)-1H-pyrazol-4-yl)-4-(4-cyano-4-phenylpiperidin-1-yl)-6-fluoroquinoline-3-carboxamide], less than 500 nM; in that of `COc1ccc2ncc(C(=O)N3CCN(C(=O)C4CC4)CC3)c(N3CCC4(CC3)OCCO4)c2c1` [Example 1, (4-(cyclopropanecarbonyl)piperazin-1-yl)(6-methoxy-4-(1,4-dioxa-8-azaspiro[4.5]decan-8-yl)quinolin-3-yl)methanone, TFA], 1000 to 10000 nM.
Under `Cc1ccc2ncc(C(=O)N3CCN(C(=O)C4CC4)CC3)c(N3CCC4(CC3)OCCO4)c2c1` [Example 30, (4-(cyclopropanecarbonyl)piperazin-1-yl)(6-methyl-4-(1,4-dioxa-8-azaspiro[4.5]decan-8-yl)quinolin-3-yl)methanone] stands 1000 to 10000 nM; under `O=C(c1cnc2ccc(F)cc2c1N1CCC2(CC1)OCCO2)N1CCN(C(=O)C2CC2)CC1` [Example 31, (4-(cyclopropanecarbonyl)piperazin-1-yl)(6-fluoro-4-(1,4-dioxa-8-azaspiro[4.5]decan-8-yl)quinolin-3-yl)methanone], 1000 to 10000 nM.
In the case of `O=C(c1cnc2ccccc2c1N1CCC2(CC1)OCCO2)N1CCN(C(=O)C2CC2)CC1` [Example 42, (4-(1,4-dioxa-8-azaspiro[4.5]decan-8-yl)quinolin-3-yl)(4-(cyclopropanecarbonyl)piperazin-1-yl)methanone] it was greater than 10000 nM.
Regarding `O=C(c1cnc2ccc(Cl)cc2c1N1CCC2(CC1)OCCO2)N1CCN(C(=O)C2CC2)CC1` [Example 45, (6-chloro-4-(1,4-dioxa-8-azaspiro[4.5]decan-8-yl)quinolin-3-yl)(4-(cyclopropanecarbonyl)piperazin-1-yl)methanone], the IC50 was 1000 to 10000 nM.

For the origin of these results see US11795177B2, “Substituted quinoline analogs as aldehyde dehydrogenase 1A1 (ALDH1A1) inhibitors” (THE UNITED STATES OF AMERICA, AS REPRESENTED BY THE …, priority 2017, dated 2023).
